Laboratory results from PubChem BioAssay (NCI).
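Exposure lasted 48 hours, with cells grown in 96-well plates and compounds tested at five concentrations. GI50 marks 50% less growth. TGI marks complete inhibition of growth.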

What was measured:
Assay in all cases: inhibition of tumour cell growth, NCI panel, 48 h
IGROV1 ovarian = system: IGROV1 ovarian
SF-295 CNS = system: SF-295 CNS
HOP-62 NSCLC = system: HOP-62 NSCLC
786-0 renal = system: 786-0 renal
SNB-19 CNS = system: SNB-19 CNS
SR leukemia = system: SR leukemia
NCI-H23 lung = system: NCI-H23 lung
HCC-2998 colon = system: HCC-2998 colon
PC-3 prostate = system: PC-3 prostate
NCI-H522 lung = system: NCI-H522 lung

Molecule	GI50 (IGROV1 ovarian) [µM]	TGI (IGROV1 ovarian) [µM]	GI50 (SF-295 CNS) [µM]	TGI (SF-295 CNS) [µM]	GI50 (HOP-62 NSCLC) [µM]	TGI (HOP-62 NSCLC) [µM]	GI50 (786-0 renal) [µM]	TGI (786-0 renal) [µM]	GI50 (SNB-19 CNS) [µM]	TGI (SNB-19 CNS) [µM]	GI50 (SR leukemia) [µM]	TGI (SR leukemia) [µM]	GI50 (NCI-H23 lung) [µM]	TGI (NCI-H23 lung) [µM]	GI50 (HCC-2998 colon) [µM]	TGI (HCC-2998 colon) [µM]	GI50 (PC-3 prostate) [µM]	TGI (PC-3 prostate) [µM]	GI50 (NCI-H522 lung) [µM]	TGI (NCI-H522 lung) [µM]
O=C(Cc1ccccc1)NC(c1ccc(Cl)cc1)c1c(O)ccc2ccccc12 (stereo not given)	4.67	18.3	2.35	7.5	2.84	8.57	2.87	9.76	3.25	13.8	2.56	10.1	2.92	9.2	3.2	12.2	3.19	10.6	2.82	7.57
CCN(CC)CCCC(Cc1ccccc1)Nc1c2ccc(Cl)cc2nc2ccc(OC)cc12 (stereo not given)	3.21	13.2	1.86	3.55	3.39	12.5	1.4	3.34	2.56	7.17	1.43	4.25	2.9	8.47	1.61	3.3	5.22	19.1	1.81	3.57
CCOC(=O)c1c(Cl)c2c(n1Cc1cccc(OC)c1)-c1oncc1CC2	1.23	59	0.658	15.9	2.89	> 100	4.5	52.7	4.41	> 100	0.444	24.1	3.55	60.6	3.01	19.6	5.4	> 100	0.351	6.73
COc1ccc(-c2nn(-c3cccc(NC(=O)c4cccc(C(F)(F)F)c4)c3)cc2-c2ccncc2)cc1Cl	7.06	> 100	2.37	9.91	3.07	> 100	2.91	27.5	5.7	> 100	0.605	5.44	3.58	92.8	3.29	17	1.98	> 100	0.475	3.55
COc1ccc(CCN2CCC(Nc3nc4ccccc4n3Cc3ccc(F)cc3)CC2)cc1	2.01	4.27	1.65	3.26	1.72	3.15	1.46	2.77	1.77	3.93	1.58	3.83	1.69	3.5	0.46	1.69	1.8	5.66	2.37	4.91
Cc1cc(=O)oc2c(OS(C)(=O)=O)c(OS(C)(=O)=O)ccc12	–	> 100	–	> 100	–	> 100	–	> 100	–	> 100	–	> 100	–	> 100	–	> 100	–	> 100	–	> 100
O=C(O)CP(=O)(O)O	–	> 100	–	> 100	–	> 100	–	> 100	–	> 100	–	> 100	–	> 100	–	> 100	–	> 100	–	> 100
NC1=CC(=O)c2nc3ccccc3c3ccnc1c23	1.57	6.33	0.19	> 39.5	4.47	> 45.1	7.49	> 66.5	3.06	> 93.2	2.47	> 100	0.273	22.8	0.497	11.5	6.53	> 48	2.48	17.3
CC1OC(n2c3ccccc3c3c4c(c5c6ccccc6[nH]c5c32)C(=O)N(CCN2CCOCC2)C4=O)CC(O)C1O (stereo not given)	3.67	16	1.61	6.23	1.52	8.26	1.49	6.53	2.18	17.8	0.257	14.5	2	11.1	7.03	14	3.55	11.4	1.52	11.1
Nc1ccc(-c2nc3ccccc3o2)cc1S	19.7	> 100	13.6	28.8	14.5	27.7	14.5	27.6	22.9	81.3	10.5	64	14.5	35.6	14.4	32.2	6.96	22.5	35.5	> 100
CC1(C)N=C(N)N=C(N)N1c1cccc(CCCCOc2ccccc2)c1	< 0.0118	15.7	0.34	> 68.4	0.663	> 87.1	0.142	> 100	0.326	> 77.4	< 0.011	20.7	0.0664	81.4	0.0775	17.2	< 0.01	9.96	0.0614	13.3
OCC1OC2OC3C(CO)OC(OC4C(CO)OC(OC5C(CO)OC(OC6C(CO)OC(OC7C(CO)OC(OC1C(O)C2O)C(O)C7O)C(O)C6O)C(O)C5O)C(O)C4O)C(O)C3O (stereo not given) (tested in a mixture with another compound)	–	> 100	–	> 100	–	> 100	–	> 100	–	> 100	–	34.3	–	> 100	–	> 100	–	> 100	–	> 100
H-HIIKKIRTWYRKAWHVLGKV-NH2	4.32	28.3	4.8	22.8	4.59	> 100	3.37	16.6	18.3	62	7.13	87.8	4.94	31.1	3.88	31.2	2.79	9.74	11.1	63.3
